# “And” between values parts separate entries of the source, which are not always exact repeats. Equal entries are not always repeated. Marks after values point to notes of the source that are not given here.
# Tests used:
# MRSA03 = assay: Checkerboard combination with antibiotic (FIC); type: cell-based, Staphylococcus aureus; conditions: combined with ciprofloxacin
# [1] = DPPH free radical scavenging assay; type: biochemical; conditions: mean ± SD, triplicate
# Experimental: The free radical scavenging activity of extracts and compounds was evaluated according to described methods. The EC50 (μg/ml), which is the amount of sample necessary to inhibit by 50% the absorbance of free radical DPPH was calculated. Vitamin C was used as a standard control. All the analyses were carried out in triplicate.
# P. aeruginosa [2] = assay: Cell membrane leakage assay (260 and 280 nm absorbing material); type: cell-based, Pseudomonas aeruginosa; conditions: at concentrations equal to or two times MIC, concentration dependent
# Experimental: (§1) The alteration of cell membrane of P. aeruginosa and S. flexneri was evaluated by measuring the optical densities at 260 nm and 280 nm of the bacterial suspensions in the presence and absence of MeOH extract and compound 2 using the method described by Karsha and Lakshmi.
# C. neoformans = assay: Checkerboard combination with antibiotic (FIC); type: cell-based, Cryptococcus neoformans; conditions: combined with fluconazole
# [3] = system: Candida albicans ATCC10231; assay: Broth microdilution MIC/MMC
# [4] = system: Cryptococcus neoformans H99; assay: Broth microdilution MIC/MMC
# [5] = Gallic acid equivalent antioxidant capacity (GEAC) assay; type: biochemical; conditions: laccase/ABTS, 420 nm after 240 s; mean ± SD
# Experimental: The GEAC test was done as previously described with slight modifications. In a quartz cuvette, to 950 μL acetate buffer (pH =5.0, 100 mM), the following were added: 20 μL laccase (1 mM stock solution), 20 μL test sample, 10 μL ABTS (2,2′-azinobis(3-ethylbenzothiazoline-6-sulfonic acid) (74 mM stock solution). The purification of laccase from Sclerotinia sclerotiorum was done according to the protocol described. The sample concentrations in the assay mixture were 800, 400, 200, 100, 10 μg/mL for the extracts and 200, 100, 50, 25, 12.5, 6.25, 3.125, 1.56 μg/mL for the isolated compounds. The content of the generated ABTS^●+ radical was measured at 420 nm after 240 s reaction time and was converted to gallic acid equivalents by the use of a calibration curve (Pearson’s correlation coefficient: r = 0.997) constructed with 0, 4, 10, 14, 28, 56, 84 μM gallic acid standards rather than Trolox. Experiments were done in triplicate.
# S. aureus = assay: Checkerboard combination with antibiotic (FIC); type: cell-based, Staphylococcus aureus; conditions: combined with ciprofloxacin
# C. albicans = assay: Checkerboard combination with antibiotic (FIC); type: cell-based, Candida albicans; conditions: combined with fluconazole
# [6] = system: methicillin sensitive S. aureus MSSA01; assay: Broth microdilution MIC/MMC
# S. flexneri [7] = assay: Checkerboard combination with antibiotic (FIC); type: cell-based, Shigella flexneri; conditions: combined with ciprofloxacin
# Experimental: (§2) The inoculum was initially prepared as described above. The test microorganisms were inoculated into a 96-well microtitre plates and a serial dilution of two antimicrobial agents: antibiotic and MeOH extract, compound 2 or 4. Each well consisted of unique combination of test sample and antibiotic concentrations. The plates were then incubated for 24 h at 37 °C. The analyses were performed in triplicates. And the antimicrobial agents interactions were evaluated by calculating the fractional inhibitory concentration (FIC) indices. The FIC is defined as follows: MIC of antibiotic tested in combination/MIC of antibiotic tested alone + MIC of extract/compound tested in combination/MIC of extract/compound tested alone. The FIC index is interpreted as FIC ≤ 0.5: synergistic effect, 0.5 < FIC ≤1: additive effect, 1 < FIC ≤2: indifferent effect, and FIC > 2.0: antagonistic effect.
# [8] = system: bacterial and yeast species; assay: Checkerboard combination with antibiotics, whole panel; type: cell-based; conditions: overall statement over the microorganisms tested
# Experimental: as §2
# Shigella flexneri SDINT = assay: Broth microdilution MIC/MMC
# S. flexneri [9] = assay: Sugar leakage through membrane of bacteria; type: cell-based, Shigella flexneri; conditions: ½ MIC, 2 MIC, 12 h
# [10] = system: respiratory chain dehydrogenase in S. flexneri; type: cell-based, Shigella flexneri; conditions: 0, 30, 60 min
# MSSA01 = assay: Checkerboard combination with antibiotic (FIC); type: cell-based, Staphylococcus aureus; conditions: combined with ciprofloxacin
# [11] = system: methicillin resistant S. aureus MRSA03; assay: Broth microdilution MIC/MMC
# [12] = system: respiratory chain dehydrogenase in P. aeruginosa; assay: Respiratory chain dehydrogenase enzyme activity (TTC reduction); type: cell-based, Pseudomonas aeruginosa; conditions: increasing concentration, 0, 30, 60 min
# P. aeruginosa [13] = assay: Checkerboard combination with antibiotic (FIC); type: cell-based, Pseudomonas aeruginosa; conditions: combined with ciprofloxacin
# [14] = system: Pseudomonas aeruginosa ATCC27853; assay: Broth microdilution MIC/MMC
# P. aeruginosa [15] = assay: Sugar leakage through membrane of bacteria; conditions: ½ MIC, 2 MIC, 12 h
# Experimental: After incubation, the mixture was centrifuged at 12,000 rpm and the supernatant was collected. The concentration of reducing sugar was determined spectrophotometrically at 550 nm using 3–5 dinitro-salicylic acid (DNS) [29].
# S. flexneri [16] = assay: Cell membrane leakage assay (260 and 280 nm absorbing material); type: cell-based, Shigella flexneri; conditions: at concentrations equal to or two times MIC, concentration dependent
# Experimental: as §1
# [17] = system: Staphylococcus aureus ATCC25923; assay: Broth microdilution MIC/MMC
# red blood cells (RBCs) = type: cell-based, Wistar rats (Rattus novergicus)
# Experimental: Three male Wistar rats (Rattus novergicus), aged 10–12 weeks and weighing 230 to 240 g were used. These animals were bred in the animal house of the University of Dschang, Cameroon. Efforts were also made to minimize animal suffering and to reduce the number of animal used in the experiment. All the rats were anaesthesized via intraperitoneal injection of the mixture of ketamine (50 mg/ kg body weight, BW) and xylazine (10 mg /kg BW), in a dose that is commonly used for operation purposes. Subsequently the unconscious animals were decapitated swiftly and the whole blood (10 mL) was collected by cardiac puncture into a conical tube containing Ethylene Diamine Tetra Acetic Acid (EDTA) as an anticoagulant. Erythrocytes were obtained by centrifugation at room temperature for 10 min at 1000 x g and were washed three times in PBS buffer. The cytotoxicity was evaluated as previously described.
# The cytotoxic activity of extracts and isolated compounds from R. abyssinicus was studied by assessing the haemolytic activity against red blood cells (RBCs) using Triton X-100 as a positive control.
compound,measurement,setting,value
"COc1cc(O)c2c(c1)C(=O)c1cc(C)cc(O)c1C2=O [Compound 2, Physcion]",FIC (fractional inhibitory concentration index),MRSA03,0.5625
same,FICEx / FIC2 / FIC5 (MIC of extract/compound tested in combination/MIC of extract/compound tested alone),MRSA03,0.5
same,FICA (MIC of antibiotic tested in combination/MIC of antibiotic tested alone),MRSA03; 24 h at 37 °C,0.0625
same,DPPH free radical scavenging activity (EC50),[1],3.08 ± 0.44^e μg/mL
same,leakage of biological material absorbing at 260 and 280 nm,P. aeruginosa [2],induced leakage
same,Interpretation (of FIC index),C. neoformans,Synergistic (FIC ≤ 0.5: synergistic effect)
same,FIC (fractional inhibitory concentration index),C. neoformans; checkerboard,0.125
same,FICEx / FIC2 / FIC5 (MIC of extract/compound tested in combination/MIC of extract/compound tested alone),C. neoformans; checkerboard,0.0625
same,FICA (MIC of antibiotic tested in combination/MIC of antibiotic tested alone),"C. neoformans; checkerboard, 24 h at 37 °C",0.0625
same,MMC/MIC,[3]; C. albicans,1
same,MMC,"[3]; C. albicans, sub-culturing after broth microdilution",8 µg/mL
same,MIC,"[3]; Candida albicans, ATCC10231",8 µg/mL
same,MMC/MIC,[4]; C. neoformans,1
same,MMC,"[4]; C. neoformans, sub-culturing after broth microdilution",8 µg/mL
same,MIC,"[4]; Cryptococcus neoformans, H99",8 µg/mL
same,Gallic acid equivalent antioxidant capacity (GEAC),[5],104.87 ± 1.43 μg/mL and 106.03 ± 0.87^d μg/mL
same,Interpretation (of FIC index),S. aureus,Synergistic (FIC ≤ 0.5: synergistic effect)
same,FIC (fractional inhibitory concentration index),S. aureus; checkerboard,0.375
same,FICEx / FIC2 / FIC5 (MIC of extract/compound tested in combination/MIC of extract/compound tested alone),S. aureus; checkerboard,0.125
same,FICA (MIC of antibiotic tested in combination/MIC of antibiotic tested alone),"S. aureus; checkerboard, 24 h at 37 °C",0.25
same,Interpretation (of FIC index),C. albicans,Synergistic (FIC ≤ 0.5: synergistic effect)
same,FIC (fractional inhibitory concentration index),C. albicans; checkerboard,0.125
same,FICEx / FIC2 / FIC5 (MIC of extract/compound tested in combination/MIC of extract/compound tested alone),C. albicans; checkerboard,0.0625
same,FICA (MIC of antibiotic tested in combination/MIC of antibiotic tested alone),"C. albicans; checkerboard, 24 h at 37 °C",0.0625
same,MMC/MIC,[6]; MSSA01,2
same,MMC,"[6]; MSSA01, sub-culturing after broth microdilution",32 µg/mL
same,MIC,[6]; Staphylococcus aureus,16 µg/mL
same,Interpretation (of FIC index),S. flexneri [7],Synergistic (FIC ≤ 0.5: synergistic effect)
same,FIC (fractional inhibitory concentration index),S. flexneri [7]; checkerboard,0.281
same,FICEx / FIC2 / FIC5 (MIC of extract/compound tested in combination/MIC of extract/compound tested alone),S. flexneri [7]; checkerboard,0.25
same,FICA (MIC of antibiotic tested in combination/MIC of antibiotic tested alone),"S. flexneri [7]; checkerboard, 24 h at 37 °C",0.031
same,effect of the association with ciprofloxacin (bacteria) / fluconazole (yeasts),[8],synergistic
same,MMC/MIC,Shigella flexneri SDINT; S. flexneri,2
same,MMC,"Shigella flexneri SDINT; S. flexneri, sub-culturing after broth microdilution",16 µg/mL
same,MIC,Shigella flexneri SDINT; Shigella flexneri,8 µg/mL
same,appearance of reducing sugar in the bacterial culture suspension,S. flexneri [9],increased
same,respiratory chain dehydrogenase activity (TPF formed),[10],significant decrease in the TPF formed
same,FIC (fractional inhibitory concentration index),MSSA01,0.5625
same,FICEx / FIC2 / FIC5 (MIC of extract/compound tested in combination/MIC of extract/compound tested alone),MSSA01,0.5
same,FICA (MIC of antibiotic tested in combination/MIC of antibiotic tested alone),MSSA01; 24 h at 37 °C,0.0625
same,MMC/MIC,[11]; MRSA03,2
same,MMC,"[11]; MRSA03, sub-culturing after broth microdilution",32 µg/mL
same,MIC,[11]; Staphylococcus aureus,16 µg/mL
same,respiratory chain dehydrogenase activity (TPF formed),[12],significant decrease in the TPF formed
same,Interpretation (of FIC index),P. aeruginosa [13],Synergistic (FIC ≤ 0.5: synergistic effect)
same,FICEx / FIC2 / FIC5 (MIC of extract/compound tested in combination/MIC of extract/compound tested alone),P. aeruginosa [13]; checkerboard,0.125
same,FICA (MIC of antibiotic tested in combination/MIC of antibiotic tested alone),"P. aeruginosa [13]; checkerboard, 24 h at 37 °C",0.125
same,MMC/MIC,[14]; P. aeruginosa,2
same,MMC,"[14]; P. aeruginosa, sub-culturing after broth microdilution",16 µg/mL
same,MIC,"[14]; Pseudomonas aeruginosa, ATCC27853",8 µg/mL
same,appearance of reducing sugar in the bacterial culture suspension,P. aeruginosa [15],increased
same,leakage of biological material absorbing at 260 and 280 nm,S. flexneri [16],induced leakage
same,MMC/MIC,[17]; S. aureus,1
same,MMC,"[17]; S. aureus, sub-culturing after broth microdilution",8 µg/mL
same,MIC,"[17]; Staphylococcus aureus, ATCC25923",8 µg/mL
Triton X-100,lysis of RBCs,red blood cells (RBCs),100%

# — publication PMC8180025, “Antibacterial, antifungal and antioxidant activities of whole plant chemical constituents of Rumex abyssinicus” (BMC Complementary Medicine and Therapies, 2021)
